Data taken from PubChem BioAssay (NCI).
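Values below derive from 48-hour exposures of cells grown in 96-well plates, with endpoints linearly interpolated between the two concentrations bracketing the appropriate inhibition level. At the TGI there is no net growth.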

Key:
Test in all cases: DTP human tumour cell line panel, 48 h
[1] = system: MDA-MB-435
[2] = system: A498 renal
[3] = system: SK-MEL-2 melanoma
[4] = system: UACC-62 melanoma
[5] = system: NCI-H23 lung
[6] = system: HCC-2998 colon
[7] = system: CCRF-CEM leukemia
[8] = system: SF-295 CNS
[9] = system: KM12 colon
[10] = system: NCI-H460 lung
[11] = system: EKVX NSCLC
[12] = system: TK-10 renal
[13] = system: UACC-257 melanoma
[14] = system: T-47D breast
[15] = system: SK-OV-3 ovarian
[16] = system: NCI-H522 lung
[17] = system: COLO 205 colon
[18] = system: HOP-92 NSCLC
[19] = system: MOLT-4 leukemia
[20] = system: MCF7 breast
[21] = system: RXF 393 renal
[22] = system: CAKI-1 renal
[23] = system: IGROV1 ovarian
[24] = system: MALME-3M melanoma
[25] = system: OVCAR-8 ovarian
[26] = system: OVCAR-5 ovarian
[27] = system: A549 NSCLC
[28] = system: SK-MEL-5 melanoma
[29] = system: LOX IMVI melanoma
[30] = system: OVCAR-4 ovarian
[31] = system: NCI-H226 lung
[32] = system: SF-268 CNS
[33] = system: 786-0 renal
[34] = system: HOP-62 NSCLC
[35] = system: SF-539 CNS
[36] = system: NCI/ADR-RES ovarian
[37] = system: HS 578T breast
[38] = system: UO-31 renal
[39] = system: MDA-MB-231 breast
[40] = system: HCT-116 colon
[41] = system: M14 melanoma
[42] = system: HCT-15 colon
[43] = system: RPMI-8226 leukemia
[44] = system: MDA-N
[45] = system: SW-620 colon
[46] = system: U251 CNS
[47] = system: PC-3 prostate
[48] = system: HT29 colon
[49] = system: BT-549 breast
[50] = system: SNB-75 CNS
[51] = system: SK-MEL-28 melanoma
[52] = system: SN12C renal
[53] = system: DU-145 prostate
[54] = system: OVCAR-3 ovarian
[55] = system: SNB-19 CNS
[56] = system: ACHN renal

Which results are given for Fc1ccc(C(OCCN2CCC3CCC(C2)N3C/C=C/c2cccnc2)c2ccc(F)cc2)cc1 (stereo unspecified)?
TGI [1]: 24.3 µM; TGI [2]: 28 µM; TGI [3]: 26.5 µM; TGI [4]: 25 µM; TGI [5]: 26.5 µM; TGI [6]: 15.6 µM; TGI [7]: 17.5 µM; TGI [8]: 22.2 µM; TGI [9]: 26.3 µM; TGI [10]: 30.6 µM; TGI [11]: 25 µM; TGI [12]: 24 µM; TGI [13]: 12.3 µM; TGI [14]: 31 µM; TGI [15]: 29.3 µM; TGI [16]: 27 µM; TGI [17]: 2.68 µM; TGI [18]: 27 µM; TGI [19]: 14.9 µM; TGI [20]: 25.5 µM; TGI [21]: 19.4 µM; TGI [22]: 26.1 µM; TGI [23]: 27.1 µM; TGI [24]: 15 µM; TGI [25]: 25.9 µM; TGI [26]: 26.8 µM; TGI [27]: 25.4 µM; TGI [28]: 14.9 µM; TGI [29]: 27 µM; TGI [30]: 30.2 µM; TGI [31]: 30.3 µM; TGI [32]: 26.2 µM; TGI [33]: 17.8 µM; TGI [34]: 31 µM; TGI [35]: 25.2 µM; TGI [36]: 25.7 µM; TGI [37]: 31.7 µM; TGI [38]: 6.09 µM; TGI [39]: 26.6 µM; TGI [40]: 19 µM; TGI [41]: 7.09 µM; TGI [42]: 21.6 µM; TGI [43]: 5.8 µM; TGI [44]: 23.8 µM; TGI [45]: 23.1 µM; TGI [46]: 24.4 µM; TGI [47]: 21.8 µM; TGI [48]: 14.6 µM; TGI [49]: 26.4 µM; TGI [50]: 27.9 µM; TGI [51]: 5.38 µM; TGI [52]: 26.2 µM; TGI [53]: 33.1 µM; TGI [54]: 29.5 µM; TGI [55]: 29.6 µM; TGI [56]: 27.3 µM
